From ChEMBL document CHEMBL4177611, “Discovery of aminocyclohexene analogues as selective and orally bioavailable hNav1.7 inhibitors for analgesia” (Bioorg Med Chem Lett, 2017)

What was measured:
[1] = Oral bioavailability in Sprague-Dawley rat at 10 mg/kg administered as single dose via gavage by LC-MS/MS analysis; type: ADME, organism-based; settings: in vivo
[2] = Unbound plasma concentration in Sprague-Dawley rat spinal nerve ligation model at 30 mg/kg administered as single dose via oral gavage measured after 4 hrs by LC-MS/MS analysis; type: ADME, organism-based; settings: in vivo
[3] = molecular target: Sodium channel protein type 5 subunit alpha (Homo sapiens, UniProt Q14524); assay: Inhibition of human Nav1.5 expressed in HEK293 cells at -120 mV holding potential incubated over 5 mins measured at 15 secs interval by Qpatch clamp assay; type: cell-based
[4] = Plasma concentration in Sprague-Dawley rat spinal nerve ligation model at 30 mg/kg administered as single dose via oral gavage measured after 4 hrs by LC-MS/MS analysis; type: ADME, organism-based
[5] = Plasma concentration in Sprague-Dawley rat spinal nerve ligation model at 100 mg/kg administered as single dose via oral gavage measured after 1 hr by LC-MS/MS analysis; type: ADME, organism-based
[6] = Intrinsic clearance in rat liver microsomes at 1 uM after 60 mins in presence of NADPH by LC-MS/MS analysis; type: ADME, microsome; settings: read-out: CLH
[7] = Plasma concentration in Sprague-Dawley rat spinal nerve ligation model at 100 mg/kg administered as single dose via oral gavage measured after 2 hrs by LC-MS/MS analysis; type: ADME, organism-based
[8] = molecular target: T1, Cytochrome P450 1A2 (Homo sapiens, UniProt P05177)
T1 sequence (P05177 whole entry): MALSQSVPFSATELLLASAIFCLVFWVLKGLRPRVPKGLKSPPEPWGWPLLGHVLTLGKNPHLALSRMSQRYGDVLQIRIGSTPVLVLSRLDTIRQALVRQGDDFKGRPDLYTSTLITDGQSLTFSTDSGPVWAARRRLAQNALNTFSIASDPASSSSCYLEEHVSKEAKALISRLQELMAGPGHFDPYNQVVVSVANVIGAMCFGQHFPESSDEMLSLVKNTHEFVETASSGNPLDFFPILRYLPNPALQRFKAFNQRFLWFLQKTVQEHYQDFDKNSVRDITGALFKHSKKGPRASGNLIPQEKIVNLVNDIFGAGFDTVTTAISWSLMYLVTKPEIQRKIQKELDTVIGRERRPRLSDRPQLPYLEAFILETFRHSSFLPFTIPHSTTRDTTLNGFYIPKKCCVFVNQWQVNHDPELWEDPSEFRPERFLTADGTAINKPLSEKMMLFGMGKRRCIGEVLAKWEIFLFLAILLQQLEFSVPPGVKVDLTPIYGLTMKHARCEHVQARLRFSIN

[9] = Half life in Sprague-Dawley rat at 3 mg/kg administered as single iv bolus by LC-MS/MS analysis; type: ADME, organism-based; settings: in vivo

Sequence of Sodium channel protein type 5 subunit alpha (Q14524 whole entry): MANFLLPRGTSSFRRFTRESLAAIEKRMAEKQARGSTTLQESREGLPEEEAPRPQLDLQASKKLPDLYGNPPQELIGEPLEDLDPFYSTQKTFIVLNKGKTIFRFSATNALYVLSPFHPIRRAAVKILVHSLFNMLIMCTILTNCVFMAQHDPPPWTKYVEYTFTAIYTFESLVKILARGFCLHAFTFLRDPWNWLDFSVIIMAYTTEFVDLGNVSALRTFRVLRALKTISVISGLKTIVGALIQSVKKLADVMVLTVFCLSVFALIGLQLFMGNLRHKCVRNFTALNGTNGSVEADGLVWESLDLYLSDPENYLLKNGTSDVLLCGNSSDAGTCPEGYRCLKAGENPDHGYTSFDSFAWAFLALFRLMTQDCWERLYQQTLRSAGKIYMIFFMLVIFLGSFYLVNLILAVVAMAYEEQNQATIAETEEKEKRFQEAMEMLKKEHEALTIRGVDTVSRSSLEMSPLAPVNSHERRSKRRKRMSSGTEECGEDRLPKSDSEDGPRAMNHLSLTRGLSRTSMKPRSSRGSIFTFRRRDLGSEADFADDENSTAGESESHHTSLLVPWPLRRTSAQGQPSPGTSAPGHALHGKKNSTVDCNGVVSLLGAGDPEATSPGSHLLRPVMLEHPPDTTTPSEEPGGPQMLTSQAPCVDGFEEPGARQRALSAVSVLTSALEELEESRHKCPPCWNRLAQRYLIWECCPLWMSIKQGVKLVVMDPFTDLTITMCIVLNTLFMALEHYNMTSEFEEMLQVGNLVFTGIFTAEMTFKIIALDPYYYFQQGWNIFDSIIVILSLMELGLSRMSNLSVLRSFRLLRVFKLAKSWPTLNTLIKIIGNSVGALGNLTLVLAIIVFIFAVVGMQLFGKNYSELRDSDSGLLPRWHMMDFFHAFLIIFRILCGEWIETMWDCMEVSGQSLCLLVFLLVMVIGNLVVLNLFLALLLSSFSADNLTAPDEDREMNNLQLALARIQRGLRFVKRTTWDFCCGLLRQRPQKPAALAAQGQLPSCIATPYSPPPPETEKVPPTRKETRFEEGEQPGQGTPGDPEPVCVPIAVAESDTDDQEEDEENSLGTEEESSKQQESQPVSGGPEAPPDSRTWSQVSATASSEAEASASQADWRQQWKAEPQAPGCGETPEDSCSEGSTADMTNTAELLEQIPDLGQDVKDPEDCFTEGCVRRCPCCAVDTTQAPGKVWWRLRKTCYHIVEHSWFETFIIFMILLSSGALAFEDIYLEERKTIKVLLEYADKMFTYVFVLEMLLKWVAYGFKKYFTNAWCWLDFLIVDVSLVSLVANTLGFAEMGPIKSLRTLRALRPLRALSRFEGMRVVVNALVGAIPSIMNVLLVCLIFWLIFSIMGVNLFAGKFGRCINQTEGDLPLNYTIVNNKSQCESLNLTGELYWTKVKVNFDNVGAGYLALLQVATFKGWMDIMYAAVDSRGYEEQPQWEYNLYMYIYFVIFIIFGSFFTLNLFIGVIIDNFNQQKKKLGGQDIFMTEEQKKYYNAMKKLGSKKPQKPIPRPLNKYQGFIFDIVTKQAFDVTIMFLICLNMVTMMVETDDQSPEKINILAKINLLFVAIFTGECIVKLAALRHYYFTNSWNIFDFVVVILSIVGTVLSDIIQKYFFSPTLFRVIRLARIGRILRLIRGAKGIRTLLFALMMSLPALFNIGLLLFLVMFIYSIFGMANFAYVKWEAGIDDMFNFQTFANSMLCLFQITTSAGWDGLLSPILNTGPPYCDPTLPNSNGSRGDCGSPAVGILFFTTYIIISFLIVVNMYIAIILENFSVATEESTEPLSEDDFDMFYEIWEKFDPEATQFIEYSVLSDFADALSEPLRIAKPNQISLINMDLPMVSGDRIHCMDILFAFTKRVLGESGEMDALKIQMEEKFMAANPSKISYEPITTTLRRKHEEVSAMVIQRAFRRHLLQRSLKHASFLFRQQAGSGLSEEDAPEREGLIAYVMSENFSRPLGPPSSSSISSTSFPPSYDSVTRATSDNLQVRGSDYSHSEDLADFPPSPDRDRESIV

bioavailability [1]: 37% | Cp(f) [2]: 0.054 µM | concentration at 4 h [4]: 1.53 µM | concentration at 1 h [5]: 8.48 µM | CLint scaled at 1 µM [6]: 137 mL/min/kg | concentration at 2 h [7]: 7.5 µM | IC50 [8]: > 50 µM | half-life [9]: 1.56 h
SMILES: CCN[C@@H]1CCC=C(c2ccc(F)cc2)[C@H]1COc1cc(F)c(S(=O)(=O)Nc2cscn2)cc1Cl.Cl
IC50 [3]: > 10 µM
